Patent US5134150A, “Inhibition of the 5-lipoxygenase pathway” (priority 1989, dated 1992)
Read-outs that look alike come from different tables or passages of the source.

What was measured:
[1] = system: Infiltration of Polymorphonuclear Leukocytes into Sites of Carrageenan-Induced Inflammation; assay: Mouse carrageenan peritonitis (PMN infiltration); format: in vivo, mouse (male Balb/c); settings: for PMN infiltration, result in words: carrageenan peritonitis, mice
Excerpt: (§1) In the following Examples where mice were used, they were male Balb/c mice (20-28 g), and where rats were used, they were male Lewis rats (180-210 g). All mice and rats were obtained from Charles River Breeding Laboratories, Kingston, N.Y. Within a single experiment, mice and rats were sex and age matched.
(§2) The compounds of Formula (I) were used either as the free base or in the appropriate salt form. Levamisole was used as the hydrochloride salt. The compounds were homogenized in 0.5% tragacanth. Compounds were administered by gavage at the indicated dose in a final volume of 10 ml/kg. Nordihydroguaiaretic acid (NDGA) was solubilized in dimethylacetamide and diluted with olive oil for subcutaneous administration.
Mice were pretreated with either the test compound or vehicle one hour before the intraperitoneal injection of a 1.0% carrageenan suspension in saline (0.2 ml/mouse). Mice were sacrificed by cervical dislocation two hours after injection, and 3.0 ml of phosphate buffered saline, without Ca^++ or Mg^++, was injected into the peritoneum. Following massage, a 2.0 ml aliquot of the lavage fluid was removed, and the total cell count determined on a Coulter counter and differential cell count determined by microscopic examination of Giesma-stained slides.

[2] = system: 5-lipoxygenase and LTA4 synthetase; assay: Di-HETE / LTB4 production by high speed supernatant of RBL-1 cells; format: biochemical; settings: RBL-1 high speed supernatant; Table 9A; read-out: 5-LO IC50 (LTB4 production)
Protocol: For in vitro experiments, compounds were dissolved at appropriate concentrations in ethanol or DMSO (dimethylsulfoxide) (final concentration≤1.0%) and then diluted to final concentrations using the buffers indicated in the text.
The activities of these enzymes in extracts of RBL-1 cells were assayed using the method of Jakschik and Lee, Nature, 287, 51-52 (1980). RBL-1 cells were obtained from the American Type Culture Collection (#CRL 1378) and were grown at 37° C. (5% CO2 in air) in spinner culture in MEM supplemented with 10% heat inactivated fetal calf serum. Harvested cells were washed with 50 mM sodium phosphate buffer, pH 7.0, containing 1 mM EDTA and 0.1% gelatin, resuspended in fresh buffer (5×10^7 cells/ml) and disrupted by nitrogen cavitation using the Parr bomb at 750 psi for 10 min. The broken cell extract was then centrifuged at 10,000× g for 20 minutes (min) and the supernatant centrifuged at 100,000 xIg for 60 min. Aliquots (0.25 mls) of the supernatant were preincubated with or without drugs for 10 min, after which 10 μl CaCl2 (50 mM) was added and the reaction was initiated with 2.5 μl of 2.5 mM arachidonic acid-1-^14 C (final concentration was 25 μM; specific activity 20,000 dpm/nmole). After incubation for 3 min at 37° C., the reaction was terminated by addition of 2 volumes (0.5 ml) ice cold acetone and the sample was allowed to deproteinize on ice for 10 min prior to centrifugation at 1,000× g for 10 min. The deproteinized supernatant was adjusted to pH 3.5 with 2N formic acid and extracted with 2 volumes of ice cold ethyl acetate. The extracted samples were dried under argon, redissolved in ethyl acetate and applied to Whatman LK5D thin layer chromatography (TLC) plates which were developed using the A-9 solvent system [organic phase of ethyl acetate: 2,2,5-trimethylpentane:acetic acid: water (110:50:20:10)] described by Hamberg and Samuelsson, J. Biol. Chem., 241, 257-263 (1966). Arachidonic acid, 5-HETE, LTB4 and PGD2 were quantified with a Berthold LB 2832 autoscanner.
The 5-lipoxygenase and LTA4 synthetase activities were further studied under the following conditions. An additional centrifugation of the RBL-1 supernatant was run at 100,000× g for 60 min, to remove the particulate cyclooxygenase activity. Sample incubation was done under conditions similar to those described above, i.e., 2 mM CaCl2 and […] arachidonic acid-1-^14 C, however, with an incubation time of 5 min at 5° C. Under these conditions, only the 5-lipoxygenase pathway metabolites were detectable. The 5-HETE and di-HETEs were formed at a linear rate, and substantial amounts of the arachidonic acid-1-^14 C substrate were utilized.

[3] = system: Arachidonic Acid-Induced Inflammation of the Mouse Ear; assay: Arachidonic acid-induced mouse ear inflammation; format: in vivo, mouse (male Balb/c); settings: for inhibition in vivo at 50 mg/kg: Mus musculus, 1 h, Table 7A, read-out: % Inhibition of Ear Swelling
Excerpt: as §1, §2
Arachidonic acid in acetone ([…]) was applied to the inner surface of the left ear. The thickness of both ears was then measured with a dial micrometer one hour after treatment, and the data were expressed as the change in thickness (10^-3 cm) between treated and untreated ears.
Test compounds were given orally in 0.5% tragacanth at the times indicated in the text prior to the topical application of arachidonic acid.
Parenteral administration of compound was accomplished by subcutaneous injection of solution as indicated.

[4] = system: LTB4 synthesis by peritoneal exudate cells; assay: Ex vivo production of LTB4 from peritoneal exudate cells of drug-treated mice; format: in vivo, mouse; settings: for inhibition at 50 mg/kg: Mus musculus, po, 50 mg/kg p.o.
Excerpt: In the following Examples where mice were used, they were male Balb/c mice (20-28 g), and where rats were used, they were male Lewis rats (180-210 g). All mice and rats were obtained from Charles River Breeding Laboratories, Kingston, N.Y. Within a single experiment, mice and rats were sex and age matched. Auranofin, phenidone, indomethacin, naproxen, and ibuprofen were each used as the free base. The compounds of Formula (I) were used either as the free base or in the appropriate salt form. Levamisole was used as the hydrochloride salt. […] Nordihydroguaiaretic acid (NDGA) was solubilized in dimethylacetamide and diluted with olive oil for subcutaneous administration. Carrageenan-induced peritoneal exudate cells from normal or drug-treated mice were washed and suspended in 2.2 ml of phosphate buffered saline. […] The cell preparation was centrifuged at 1500 rpm for 10 min and the supernatant was extracted using a C-18 silica column. […] A tetrahydrofuran, methanol, water, acetic acid (25:30:45: 0.1) solvent system, adjusted to pH 5.5 with ammonium hydroxide, was used at a flow rate of 0.7 ml/min. Cell derived LTB4 was quantified utilizing standard curves constructed with known amounts of synthetic LTB4.

SMILES | IC50 [2] | inhibition in vivo at 50 mg/kg ([3]; 50 mg/kg s.c. or i.p.) | other results
c1ccc([C@H]2CN3CCSC3=N2)cc1 [Levamisole] |  |  | PMN infiltration, result in words [1]: did not impair inflammatory cell infiltration
COc1ccc(-c2nc3n(c2-c2ccc(F)cc2)CCS3)cc1 [Compound 14] | 0.6 µM | 64% | 
Fc1ccc(-c2c(-c3ccccn3)nc3n2CCS3)cc1 [Compound 24, 5-(4-fluorophenyl)-6-(2-pyridinyl)-2,3-dihydroimidazo[2,1-b]thiazole] | 20 µM | 69% | 
CCN(CC)c1ccc(-c2nc3n(c2-c2ccc(N(CC)CC)cc2)CCS3)cc1 [Compound 9, 5,6-bis(4-N,N-diethylaminophenyl)-2,3-dihydroimidazo [2,1-b]thiazole] | 0.16 µM |  | inhibition in vivo at 50 mg/kg ([3]; po, 50 mg/kg p.o.): 17%
FC(F)(F)c1ccc(-c2nc3n(c2-c2ccc(C(F)(F)F)cc2)CCS3)cc1 [Compound 15] | 10 µM |  | 
Fc1ccc(-c2nc3n(c2-c2ccc(F)cc2)CCC3)cc1 [Compound 8] | 8 µM |  | inhibition in vivo at 50 mg/kg ([3]; po, 50 mg/kg p.o.): 40%
CC(C)Cc1ccc(C(C)C(=O)O)cc1 (stereo not shown) [Ibuprofen, reference compound] |  |  | Mouse ear edema, result in words ([3]; mouse, in vivo): did not exhibit detectable anti-inflammatory activity
c1cc(-c2c(-c3ccc(N4CCCC4)cc3)nc3n2CCS3)ccn1 [Compound 25, 5-(4-pyridyl)-6-(4-(pyrrolidin-1-yl)-phenyl)-2,3-dihydroimidazo[2,1-b]thiazole] | 0.5 µM |  | inhibition in vivo at 50 mg/kg ([3]; po, 50 mg/kg p.o.): 17%
N#Cc1ccc(-c2nc3n(c2-c2ccc(C#N)cc2)CCS3)cc1 [Compound 13, 5,6-bis(4-cyanophenyl)-2,3-dihydroimidazo[2,1-b]thiazole] | 15 µM | 50% | 
c1cc(-c2nc3n(c2-c2ccc4c(c2)OCO4)CCS3)ccn1 [Compound 7, 6-(4-pyridyl)-5-(3,4-methylenedioxyphenyl)-2,3-dihydroimidazo [2,1-b]thiazole] | 10 µM | 62% | 
CN(C)c1ccc(-c2c(-c3ccc(F)cc3)nc3n2CCS3)cc1 [Compound 10, 5-(4-Dimethylaminophenyl)-6-(4-fluorophenyl)-2,3-dihydroimidazo[2,1-b]-thiazole] | 1.5 µM | 7% | 
CCCNc1ccc(-c2nc3n(c2-c2ccncc2)CCS3)cc1 [Compound 2, 6-(4-(1-propylamino)phenyl)-5-(4-pyridyl)-2,3-dihydroimidazo[2,1-b]thiazole] | 7 µM | 23% | 
COc1ccc(-c2nc3n(c2-c2ccc(OC)cc2)CCS3)cc1 [Compound 21] | 2.8 µM |  | 
c1cc(N2CCCCC2)ccc1-c1nc2n(c1-c1ccc(N3CCCCC3)cc1)CCS2 [Compound 4, 5,6-bis(4-(1-piperidinyl)phenyl)-2,3-dihydroimidazo[2,1-b] thiazole] | 0.6 µM | 22% | 
CC(=O)Nc1ccc(-c2nc3n(c2-c2ccncc2)CCS3)cc1 [Compound 38, 5-(4-pyridyl)-6-(4-acetamidophenyl)-2,3-dihydroimidazo (2,1-b)thiazole] | 30 µM |  | 
COc1ccc(-c2nc3n(c2-c2ccc(OC)cc2)CCCS3)cc1 [Compound 20] | 5.6 µM | 47% | 
Fc1ccc(-c2nc3n(c2-c2ccc(F)cc2)CCS3)cc1 [Compound 19] | 5 µM |  | inhibition in vivo at 50 mg/kg ([3]; po, 50 mg/kg p.o.): 34%
CN(C)c1ccc(-c2nc3n(c2-c2ccc(F)cc2)CCS3)cc1 [Compound 6, 6-(4-dimethylaminophenyl)-5-(4-fluorophenyl)-2,3-dihydroimidazo[2,1-b]thiazole] | 0.6 µM | 48% | 
c1cc(-c2nc3n(c2-c2ccncc2)CCS3)ccn1 [Compound 11, 5,6-Bis(4-pyridyl)-2,3-dihydroimidazo(2,1-b) thiazole] | 33 µM | 29% | 
CSc1ccc(-c2nc3n(c2-c2ccc(SC)cc2)CCS3)cc1 [Compound 32] | > 100 µM |  | 
CC(=O)OC[C@H]1O[C@@H]([S-])[C@H](OC(C)=O)[C@@H](OC(C)=O)[C@@H]1OC(C)=O.CCP(CC)CC.[Au+] [Auranofin] |  |  | % Change (PMN) ([1]; 2 mg Au/kg, p.o., Table 3): -6%; PMN (Mean ± S.D.) ([1]; 2 mg Au/kg, p.o., Table 3): 7.50 ± 1.57 × 10^-5 /ml; PMN infiltration, result in words [1]: did not impair inflammatory cell infiltration
c1cc2c(cc1-c1nc3n(c1-c1ccc4c(c1)OCO4)CCS3)OCO2 [Compound 16] | 1.5 µM |  | inhibition in vivo at 50 mg/kg ([3]; po, 50 mg/kg p.o.): 32%
O=S1(=O)CCn2c1nc(-c1ccc(F)cc1)c2-c1ccc(F)cc1 [Compound 31] | < 33 µM |  | 
c1cc(N2CCCC2)ccc1-c1nc2n(c1-c1ccc(N3CCCC3)cc1)CCS2 [Compound 3, 5,6-bis(4-(1-pyrrolidinyl)phenyl)-2,3-dihydroimidazo[2,1-b] thiazole] | 0.1 µM | 44% | 
c1cc(-c2c(-c3ccc4c(c3)OCO4)nc3n2CCS3)ccn1 [Compound 5] | 10 µM |  | 
CC(Cc1ccc(O)c(O)c1)C(C)Cc1ccc(O)c(O)c1 (stereo not shown) [NDGA, Nordihydroguaiaretic acid] |  |  | PMN infiltration, result in words [1]: effective
COc1ccc2cc([C@H](C)C(=O)O)ccc2c1 [Naproxen] |  |  | inhibition at 50 mg/kg ([4]; Experiment 1): 0%; inhibition at 50 mg/kg ([4]; Experiment 2): 15%; inhibition at 50 mg/kg ([4]; Experiment 3): 0%; LTB4 production ex vivo, result in words ([4]; mouse, in vivo): inactive
[O-][S+]1CCn2c1nc(-c1ccc(F)cc1)c2-c1ccc(F)cc1 (stereo not shown) [Compound 30] | 60 µM |  | 
Fc1ccc(-c2nc3n(c2-c2ccccn2)CCS3)cc1 [Compound 23, 5-(2-pyridinyl)-6-(4-fluorophenyl)-2,3-dihydroimidazo[2,1-b]thiazole] | 42 µM | 65% | 
COc1ccc(-c2nc3n(c2-c2ccc(OC)cc2)CCC3)cc1 [Compound 22] |  | 15% | 
